The source of these data is ChEMBL document CHEMBL3638965, “Chemical compounds 542” (2015).

This assay addresses DNA gyrase (Escherichia coli, UniProt P0AES4+P0AES6). Nature of the assay: Fluorescence Polarisation Assay: In a black, 384-well polystyrene assay plate, 30 microliters/well of 5 nM Escherichia coli DNA gyrase A/B tetramer and 130 micrograms/ml of topologically relaxed plasmid containing the triplex-forming sequence […] in an assay buffer consisting of 35 mM Tris-HCl (pH 7.5), 24 mM KCl, 4 mM MgCl2, 2 mM dithiothreitol, 1.8 mM spermidine, 5% (v/v) glycerol, 200 nM bovine serum albumin, 0.8% dimethylsulfoxide, and 0.3 mM ATP may be incubated at ambient temperature for (typically 30 minutes) in the absence or presence of 5-10 different concentrations of test compound. The supercoiling reactions may be quenched by the addition of 10 microliters/well of 40 nM oligodeoxynucleotide probe in 3x triplex-forming buffer consisting of 150 mM NaCl, and 150 mM sodium acetate at pH 3.5. The oligodeoxynucleotide probe may be 5x-BODIPY-FL-labeled […]. After 60 minutes, the fluorescence anisotropy of the BODIPY-FL may be measured in a Tecan Ultra plate reader, using 485 nM. Format: protein-complex assay.

On to `C[C@@H]1CN2c3c(cc4c(C(N)=O)noc4c3F)CC3(C(=O)NC(=O)NC3=O)[C@H]2[C@H](C)O1` (relative stereo), for which the IC50 worked out at 1700 nM. In the case of `C[C@@H]1CN2c3c(cc4c(Cl)noc4c3F)CC3(C(=O)NC(=O)NC3=O)[C@H]2[C@H](C)O1`, the IC50 amounted to 200 nM. With `Cc1noc2c(Cl)c3c(nc12)CC1(C(=O)NC(=O)NC1=O)[C@H]1[C@H](C)O[C@H](C)CN31` (relative stereo), the IC50 turned out to be 1800 nM.
